Source: patent publication US20260207450A1, “ANTI-DANDRUFF COMPOSITIONS” (Firmenich SA, priority 2022, published 2026)
≈ marks a conversion by molar mass, not a printed value.

Tests used:
M. globosa ATCC MYA-4612 [1] = experiment: Disc-diffusion assay, perfumery materials in Shampoo Base B, M. globosa; format: cell-based, Malassezia globosa; details: 0.25% perfumery material in 25% Shampoo Base B solution, 6 mm disc, 6 days
From the text: (§1) The present inventors sought to investigate how whether the anti-dandruff effect of compounds and compositions could be used in shampoo formulations. For this reason, they prepared two shampoo bases. Shampoo Base A is a composition with Sodium Laureth Sulfate and cocamidopropyl betaine as the primary ingredients, while Shampoo Base B is a composition with Ammonium Lauryl Sulfate and Ammonium Laureth Sulfate as primary ingredients. Anti-Malassezia effect of perfumery materials in shampoo was determined using disc-diffusion assay, based on the method of J Mycol Infect 2018; 23: 91-98. […] Aliquots (20 μL) of each sample solution was added to each disc. Agar plates were incubated at 30° C. for 6 days. After incubation, diameters of the clear inhibition zones around the discs were measured.

[2] = system: Staphylococcus aureus ATCC 6538; experiment: MIC assay on Staphylococcus aureus ATCC 6538; format: cell-based; details: TSB, 37° C., 24 h aerobically, dilutions 29 to 10000 ppm; for MIC: Staphylococcus aureus, ATCC6538, read-out: MIC (ppm) S. aureus
Description: MIC assay for Staphylococcus aureus ATCC 6538 is based on Clinical Laboratory Standard Institute: CLSI/NCCLS M07-A8. Cell suspension of working cultures of S. aureus was prepared following the instructions of culture provider ATCC, USA.
(§2) A total of 26 perfumery materials were examined for an inhibition effect on Malassezia furfur and Staphylococcus aureus.

M. restricta = experiment: Disc-diffusion assay, combinations with piroctone olamine (PO) in DMSO, M. restricta; format: cell-based, Malassezia restricta; details: 4 days, ratio greater than 1.0 = boosting effect
Description: Anti-Malassezia effect of combinations of PO and perfumery materials in solvent DMSO against M. restricta was determined using disc-diffusion assay as described above. Aliquots (20 μL) of each sample solution was added to each disc. Agar plates were incubated at 30° C. for 4 days. After incubation, diameters of the clear inhibition zones around the discs were measured. Ratio of inhibition zone diameter of each combination to that of PO only were calculated. […] Anti-Malassezia effect of combinations of PO and perfumery raw materials mixtures in solvent DMSO was determined using disc-diffusion assay, as described above. Aliquots (20 μL) of each sample solution was added to each disc. Agar plates were incubated at 30° C. for 4 days. After incubation, diameters of the clear inhibition zones around the discs were measured. Ratio of inhibition zone diameter of each combination to that of PO only were calculated.

M. furfur DSM 6170 [3] = experiment: Disc-diffusion assay, perfumery materials in DMSO, M. furfur; format: cell-based, Malassezia furfur; details: for zone of inhibition at 2 %: Malassezia furfur, DSM6170, 72 h
Description: (§3) Anti-Malassezia effect of perfumery materials in solvent in DMSO was determined using disc-diffusion assay, based on the method of J Mycol Infect 2018: 23: 91-98. In brief, working cultures of Malassezia strains were prepared from −80 C stock culture on mDixon agar plate (for M. furfur DSM 6170) or mLN agar plate (for M. restricta ATCC MYA-4611 and M. globosa ATCC MYA-4612), and cells were suspended in 0.9% saline, and spread onto mDixon or mLN agar surface to prepare lawn plate. Test samples solutions are prepared in DMSO to final concentrations of 0.2%, 1% or 2%. Discs (Whatman, 6 mm in diameter) were placed on inoculated agar plates with each Malassezia strains respectively, including M. furfur DSM 6170, M. restricta ATCC MYA-4611, and M. globosa ATCC MYA-4612. Aliquots (20 μL) of each sample solution was added to each disc. Agar plates were incubated at 30° C. for 3 days for M. furfur DSM 6170, and 6 days for M. restricta ATCC MYA-4611, and M. globosa ATCC MYA-4612. After incubation, diameters of the clear inhibition zones around the discs were measured. Inhibition zone greater than 6 mm are regarded as having anti-Malassezia effect.

M. globosa ATCC MYA-4612 [4] = experiment: Disc-diffusion assay, perfumery materials in DMSO, M. globosa; format: cell-based, Malassezia globosa; details: for zone of inhibition at 0.2 % / zone of inhibition at 1 % / zone of inhibition at 2 %: Malassezia globosa, 144 h; for Inhibition zone (mm) M. globosa: 20 μL on 6 mm disc, 6 days, NI means no inhibition zone
Description: as §3

[5] = system: M. restricta ATCC MYA-4611; experiment: Disc-diffusion assay, perfumery materials in DMSO, M. restricta; format: cell-based, Malassezia restricta; details: for zone of inhibition at 0.2 % / zone of inhibition at 1 % / zone of inhibition at 2 %: Malassezia restricta, 144 h; for Inhibition zone (mm) M. restricta: 20 μL on 6 mm disc, 6 days, NI means no inhibition zone
Description: as §3

M. furfur DSM 6170 [6] = experiment: Disc-diffusion assay, (2E,6Z)-2,6-nonadienal with anti-dandruff actives in DMSO, M. furfur; format: cell-based, Malassezia furfur; details: 3 days
Description: The anti-Malassezia effect of perfumery materials in combination of anti-dandruff actives using the disk-diffusion assay, modified based on the method of J Mycol Infect 2018; 23: 91-98. working culture of M. furfur DSM 6170 was prepared from −80 C stock culture on mDixon agar plate, and cells were suspended in 0.9% saline, and spread onto mDixon agar surface to prepare lawn plates. Discs (Whatman, 6 mm in diameter) were placed on inoculated mDixon agar plates. Test sample solutions are prepared in DMSO. Aliquots (20 μL) of each sample solution was added to each disc. Agar plates were incubated at 30° C. for 3 days. After incubation, diameters of the clear inhibition zones around the discs were measured.

[7] = system: Malassezia furfur DSM 6170; experiment: MIC assay on Malassezia furfur DSM 6170 (resazurin); format: cell-based; details: 30° C., 48 h aerobically, dilutions 29 to 10000 ppm; for MIC: Malassezia furfur, DSM6170
Description: The MIC assay for Malassezia furfur DSM 6170 was modified based on the method in Journal of Clinical Microbiology 2017, Vol 55: 1883-1893. In brief, working culture was prepared from stock cultures stored at −80° C. to obtain a cell suspension as the inoculum. Serial dilutions of samples, 29 to 10000 ppm, were tested to determine the MIC values for growth of Malassezia furfur DSM 6170 after at 30° C. for 48 h aerobically. Resazurin was used as growth indicator.
as §2

[8] = system: M. restricta ATCC MYA-4611; experiment: Disc-diffusion assay, perfumery materials in Shampoo Base B, M. restricta; format: cell-based, Malassezia restricta; details: 0.25% perfumery material in 25% Shampoo Base B solution, 6 mm disc, 6 days
From the text: as §1

Row | Compound | MIC [2] [µg/mL] | Ratio of inhibition zone diameter (0.5% PRM + 0.1% PO) to 0.1% PO (M. restricta) | zone of inhibition at 2 % (M. furfur DSM 6170 [3]) [mm] | zone of inhibition at 0.2 % (M. globosa ATCC MYA-4612 [4]) [mm] | zone of inhibition at 1 % (M. globosa ATCC MYA-4612 [4]) [mm] | zone of inhibition at 0.2 % [5] [mm] | zone of inhibition at 1 % [5] [mm] | zone of inhibition at 2 % [5] [mm] | MIC [7] [µg/mL] | zone of inhibition at 2 % (M. globosa ATCC MYA-4612 [4]) [mm] | other results
1 | CC/C=C\CC/C=C/C=O [(2E,6Z)-2,6-nonadienal] | 233 (≈ 1690 µM) | 3.4 | 13.5 | 12.4 | > 40 | 7.7 | > 40 | > 40 | 44 (≈ 318 µM) | – | Inhibition zone (mm) M. globosa (M. globosa ATCC MYA-4612 [1]): 12.8 mm; Ratio of inhibition zone diameter (0.2% PRM + 0.1% PO) to 0.1% PO (M. restricta): 1.2; Inhibition zone (mm) on M. furfur (M. furfur DSM 6170 [6]; Table 5, 0.75% in DMSO, 6 mm disc): 7.6 mm; Inhibition zone (mm) on M. furfur (M. furfur DSM 6170 [6]; Table 6, 1% in DMSO): 11.4 mm; Inhibition zone (mm) on M. furfur (M. furfur DSM 6170 [6]; Table 7, 1% in DMSO): 14.1 mm; Inhibition zone (mm) M. restricta [8]: 11.1 mm
2 | CCCCCCCCC/C=C/C=O [(2E)-2-dodecenal] | 49 (≈ 269 µM) | 2.1 | 12.6 | – | 15.2 | 10 | 14.4 | 18.1 | 148 (≈ 812 µM) | 17.9 | Ratio of inhibition zone diameter (1% PRM + 0.35% PO) to 0.35% PO (M. restricta): 1.2
3 | C=CCc1ccc(O)c(OC)c1 [2-methoxy-4-(2-propen-1-yl)phenol] | – | – | – | – | – | – | – | – | – | – | Inhibition zone (mm) M. globosa (M. globosa ATCC MYA-4612 [1]): 8.2 mm; Inhibition zone (mm) M. restricta [8]: 7.3 mm
4 | CCCc1cccc(O)c1 [3-propylphenol] | – | – | – | – | – | – | – | – | – | – | Inhibition zone (mm) M. globosa (M. globosa ATCC MYA-4612 [1]): 10.2 mm; Inhibition zone (mm) M. restricta [8]: 7.7 mm
5 | CC(C)=CCC/C(C)=C/C=O [citral, (Z)-3,7-dimethyl-2,6-octadienal+(E)-3,7-dimethyl-2,6-octadienal] | 450 (≈ 2960 µM) | – | 8.6 | 6.2 | – | 6.2 | 7.1 | > 40 | 222 (≈ 1460 µM) | 8.7 | Ratio of inhibition zone diameter (1% PRM + 0.35% PO) to 0.35% PO (M. restricta): 1.1
6 | C/C(=C\c1ccc(C)cc1)CCC=O [(4E)-4-methyl-5-(4-methylphenyl)-4-pentenal] | 75 (≈ 398 µM) | 1.2 | 7.5 | – | 9 | 6.8 | 11.6 | 12 | 333 (≈ 1770 µM) | 10.5 | –
7 | CCCCC(CC)CO (centres unmarked) [2-ethyl-1-hexanol] | 867 (≈ 6660 µM) | – | 7.6 | – | 6.7 | – | 6.4 | – | 44 (≈ 338 µM) | – | –
8 | O=C/C=C/c1ccccc1 [cinnamaldehyde, (E)-3-phenyl-2-propenal] | 293 (≈ 2220 µM) | 3.4 | 16.5 | – | 17.6 | 8.4 | 34.5 | 33.3 | 99 (≈ 749 µM) | 27.4 | Ratio of inhibition zone diameter (0.2% PRM + 0.1% PO) to 0.1% PO (M. restricta): 1.4; Ratio of inhibition zone diameter (0.2% PRM + 0.35% PO) to 0.35% PO (M. restricta): 1.3
9 | COC(=O)c1c(C)cc(O)c(C)c1O [methyl 2,4-dihydroxy-3,6-dimethylbenzoate] | 111 (≈ 566 µM) | – | 7 | 7.4 | – | 6.3 | – | 12 | 290 (≈ 1480 µM) | 9.2 | –
10 | CCCCCc1cc(C)ccn1 [4-methyl-2-pentylpyridine] | 693 (≈ 4240 µM) | – | 6.7 | 6.7 | – | 6.6 | – | – | 222 (≈ 1360 µM) | – | –
11 | CC(=O)N1CCN(c2ccc(OCC3COC(Cn4ccnc4)(c4ccc(Cl)cc4Cl)O3)cc2)CC1 (centres unmarked) [ketoconazole] | – | – | – | – | – | – | – | – | – | – | Inhibition zone (mm) on M. furfur (M. furfur DSM 6170 [6]; Table 7, 0.1% in DMSO): 22.3 mm; Inhibition zone (mm) on M. furfur (M. furfur DSM 6170 [6]; Table 7, 0.2% in DMSO): 24.6 mm; Inhibition zone (mm) on M. furfur (M. furfur DSM 6170 [6]; Table 7, 0.3% in DMSO): 24.5 mm; Inhibition zone (mm) on M. furfur (M. furfur DSM 6170 [6]; Table 7, 0.4% in DMSO): 24.9 mm
12 | cyclopropylmethyl (3Z)-3-hexenoate + cyclopropylmethyl (3E)-3-hexenoate | – | – | – | – | – | – | – | – | – | – | MIC (ppm) S. aureus [2]: 625 ppm; Inhibition zone (mm) M. furfur (M. furfur DSM 6170 [3]; 2% in DMSO, 20 μL on 6 mm disc, 3 days, NI means no inhibition zone): 8.0 mm; Inhibition zone (mm) M. globosa (M. globosa ATCC MYA-4612 [4]; 0.2% in DMSO): 8.7 mm; Inhibition zone (mm) M. globosa (M. globosa ATCC MYA-4612 [4]; 2% in DMSO): 13.0 mm; Inhibition zone (mm) M. restricta ([5]; 0.2% in DMSO): 6.3 mm; Inhibition zone (mm) M. restricta ([5]; 2% in DMSO): 11.0 mm; MIC (ppm) M. furfur [7]: 333 ppm
